Measured values as given in patent US20120034193A1, “TREATMENT OF NEUROTROPHIC FACTOR MEDIATED DISORDERS” (priority 2009, published 2012).
Marks after values point to notes of the source that are not given here.

Legend:
BDNF [1] = assay: BDNF protein in culture medium of rat cortical neurones exposed to β-amyloid; assay type: cell-based; conditions: 10 μM pre-incubation 48 h, then β-amyloid 10 μg/ml 48 h
Procedure: (§1) Rat cortical neurones were cultured by modification of a method previously described (Eckenstein and Sofroniew, Journal of Neuroscience, 1983, 3, pp. 2286-2291). On day 8, the culture medium was changed to a medium containing vehicle (DMSO, 0.5%) or smilagenin or sarsasapogenin (10 μM). On day 10, rat primary cortical neurones were exposed to β-amyloid (10 μg/ml) for 48 h at 37° C. and the concentration of BDNF in the culture medium, the number of choline acetyltransferase (ChAT) positive cells, and the neurite outgrowth was measured (smilagenin only).

BDNF [2] = assay: Brain BDNF in aged rats (ELISA); assay type: in vivo, Sprague Dawley (SD) rats; conditions: 18 mg/kg/day oral, 3 months, aged 1.21, young 1.65
Procedure: Old Sprague Dawley (SD) rats (20 month old) were orally administered sarsasapogenin or smilagenin (18 mg/kg/day) for 3 months. […] Young SD rats (4 month old) were used as healthy positive control. At the end of the treatment the brains removed for quantification of BDNF using an ELISA.

Glucocorticoid = biological target: T1, Glucocorticoid (Homo sapiens, UniProt P04150); assay: Receptor binding assay; conditions: sarsasapogenin 10 μM
T1 construct: host or cells: tissue or cell homogenate, not specified
T1 sequence (P04150 whole entry): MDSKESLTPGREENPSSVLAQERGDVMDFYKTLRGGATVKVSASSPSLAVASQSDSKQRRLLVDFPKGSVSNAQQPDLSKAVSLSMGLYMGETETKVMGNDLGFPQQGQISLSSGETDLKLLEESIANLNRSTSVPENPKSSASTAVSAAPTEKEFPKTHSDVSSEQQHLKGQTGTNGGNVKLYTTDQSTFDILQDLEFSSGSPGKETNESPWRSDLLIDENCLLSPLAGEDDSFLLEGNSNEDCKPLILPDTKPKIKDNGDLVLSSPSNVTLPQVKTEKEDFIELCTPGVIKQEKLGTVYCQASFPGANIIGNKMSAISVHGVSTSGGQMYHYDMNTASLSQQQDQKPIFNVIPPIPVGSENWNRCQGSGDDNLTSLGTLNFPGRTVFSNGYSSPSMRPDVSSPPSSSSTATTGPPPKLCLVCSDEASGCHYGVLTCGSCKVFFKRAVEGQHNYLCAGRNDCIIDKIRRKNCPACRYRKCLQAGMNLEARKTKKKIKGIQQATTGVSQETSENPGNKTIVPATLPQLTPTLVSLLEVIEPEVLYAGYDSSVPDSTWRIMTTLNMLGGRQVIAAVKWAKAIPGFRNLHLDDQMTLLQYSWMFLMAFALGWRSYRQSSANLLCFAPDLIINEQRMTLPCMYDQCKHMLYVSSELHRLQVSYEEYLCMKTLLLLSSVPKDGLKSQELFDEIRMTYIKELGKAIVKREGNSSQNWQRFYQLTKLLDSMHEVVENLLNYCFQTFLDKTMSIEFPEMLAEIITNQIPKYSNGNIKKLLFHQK
Procedure: (§2) The receptor binding was investigated using the following method: Sarsasapogenin was incubated with tissue or cell homogenate that expressed the receptor of interest and a known concentration a radiolabelled compound with affinity for the receptor of interest. After the incubation period the non-bound radiolabelled compound was removed and the amount of specific binding was quantified. The amount of specific binding in the presence and absence of sarsasapogenin were compared and the percent inhibition of the binding of the radiolabelled compound by sarsasapogenin was calculated. The source of the receptor, the incubation conditions, the radiolabelled compound used varied depending on each specific assay.

Muscarinic M1 = biological target: T2, Muscarinic M1 (Homo sapiens, UniProt P11229); assay: Receptor binding assay; conditions: sarsasapogenin 10 μM
T2 construct: host or cells: tissue or cell homogenate, not specified
T2 sequence (P11229 whole entry): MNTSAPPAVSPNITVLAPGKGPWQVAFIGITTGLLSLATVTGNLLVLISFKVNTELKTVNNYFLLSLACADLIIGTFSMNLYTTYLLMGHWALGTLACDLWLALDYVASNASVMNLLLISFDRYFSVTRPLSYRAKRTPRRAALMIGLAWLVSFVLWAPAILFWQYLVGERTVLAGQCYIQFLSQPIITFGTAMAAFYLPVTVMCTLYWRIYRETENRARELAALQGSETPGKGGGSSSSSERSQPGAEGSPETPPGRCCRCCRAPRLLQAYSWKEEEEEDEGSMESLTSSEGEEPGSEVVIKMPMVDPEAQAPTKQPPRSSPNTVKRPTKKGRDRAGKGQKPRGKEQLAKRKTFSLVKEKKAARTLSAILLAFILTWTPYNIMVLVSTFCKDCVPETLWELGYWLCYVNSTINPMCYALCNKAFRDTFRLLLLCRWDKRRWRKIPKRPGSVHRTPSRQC
Procedure: as §2

Muscarinic M4 = biological target: T3, Muscarinic M4 (Homo sapiens, UniProt P08173); assay: Receptor binding assay; conditions: sarsasapogenin 10 μM
T3 construct: host or cells: tissue or cell homogenate, not specified
T3 sequence (P08173 whole entry): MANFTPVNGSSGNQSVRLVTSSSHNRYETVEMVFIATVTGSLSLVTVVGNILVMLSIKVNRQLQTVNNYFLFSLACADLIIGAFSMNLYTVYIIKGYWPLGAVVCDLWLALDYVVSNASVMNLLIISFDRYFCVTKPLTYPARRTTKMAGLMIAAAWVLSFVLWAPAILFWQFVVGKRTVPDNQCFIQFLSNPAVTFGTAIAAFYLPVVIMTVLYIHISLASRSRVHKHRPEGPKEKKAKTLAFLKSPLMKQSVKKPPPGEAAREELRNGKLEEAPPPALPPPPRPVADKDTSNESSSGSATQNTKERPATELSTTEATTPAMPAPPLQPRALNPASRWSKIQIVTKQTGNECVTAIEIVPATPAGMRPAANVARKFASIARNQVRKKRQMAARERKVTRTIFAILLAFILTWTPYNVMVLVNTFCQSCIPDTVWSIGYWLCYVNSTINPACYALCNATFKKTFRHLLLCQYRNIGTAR
Procedure: as §2

Muscarinic M5 = biological target: T4, Muscarinic M5 (Homo sapiens, UniProt P08912); assay: Receptor binding assay; conditions: sarsasapogenin 10 μM
T4 construct: host or cells: tissue or cell homogenate, not specified
T4 sequence (P08912 whole entry): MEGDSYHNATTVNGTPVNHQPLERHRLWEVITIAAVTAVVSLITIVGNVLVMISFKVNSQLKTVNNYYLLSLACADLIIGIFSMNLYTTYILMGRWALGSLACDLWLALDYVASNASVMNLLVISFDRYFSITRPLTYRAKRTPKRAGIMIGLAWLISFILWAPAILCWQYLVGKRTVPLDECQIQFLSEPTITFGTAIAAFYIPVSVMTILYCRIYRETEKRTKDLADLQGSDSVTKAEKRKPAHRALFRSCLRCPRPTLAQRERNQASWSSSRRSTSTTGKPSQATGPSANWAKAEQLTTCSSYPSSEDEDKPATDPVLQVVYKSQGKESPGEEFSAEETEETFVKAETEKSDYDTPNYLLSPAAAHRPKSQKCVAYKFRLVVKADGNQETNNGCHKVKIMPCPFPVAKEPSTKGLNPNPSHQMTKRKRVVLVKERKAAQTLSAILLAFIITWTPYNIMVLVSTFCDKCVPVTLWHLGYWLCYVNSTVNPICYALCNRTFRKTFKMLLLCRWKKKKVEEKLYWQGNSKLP
Procedure: as §2

Muscarinic M3 = biological target: T5, Muscarinic M3 (Homo sapiens, UniProt P20309); assay: Receptor binding assay; conditions: sarsasapogenin 10 μM
T5 construct: host or cells: tissue or cell homogenate, not specified
T5 sequence (P20309 whole entry): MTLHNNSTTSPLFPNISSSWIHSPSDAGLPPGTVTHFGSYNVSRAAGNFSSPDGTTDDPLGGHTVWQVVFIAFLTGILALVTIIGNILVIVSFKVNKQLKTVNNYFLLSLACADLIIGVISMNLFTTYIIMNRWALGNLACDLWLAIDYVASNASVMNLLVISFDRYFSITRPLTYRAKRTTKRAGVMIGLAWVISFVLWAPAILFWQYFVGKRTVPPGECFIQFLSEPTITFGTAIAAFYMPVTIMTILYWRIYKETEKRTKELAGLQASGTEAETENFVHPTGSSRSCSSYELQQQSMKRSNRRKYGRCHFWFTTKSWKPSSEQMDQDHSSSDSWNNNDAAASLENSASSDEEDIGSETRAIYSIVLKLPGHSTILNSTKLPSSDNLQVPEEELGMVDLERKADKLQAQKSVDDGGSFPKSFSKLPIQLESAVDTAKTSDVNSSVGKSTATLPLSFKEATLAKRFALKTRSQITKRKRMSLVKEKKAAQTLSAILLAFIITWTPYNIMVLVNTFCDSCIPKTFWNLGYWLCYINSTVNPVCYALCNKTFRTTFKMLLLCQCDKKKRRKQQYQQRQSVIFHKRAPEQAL
Procedure: as §2

Dopamine D1 = biological target: T6, Dopamine D1 (Homo sapiens, UniProt P21728); assay: Receptor binding assay; conditions: sarsasapogenin 10 μM
T6 construct: host or cells: tissue or cell homogenate, not specified
T6 sequence (P21728 whole entry): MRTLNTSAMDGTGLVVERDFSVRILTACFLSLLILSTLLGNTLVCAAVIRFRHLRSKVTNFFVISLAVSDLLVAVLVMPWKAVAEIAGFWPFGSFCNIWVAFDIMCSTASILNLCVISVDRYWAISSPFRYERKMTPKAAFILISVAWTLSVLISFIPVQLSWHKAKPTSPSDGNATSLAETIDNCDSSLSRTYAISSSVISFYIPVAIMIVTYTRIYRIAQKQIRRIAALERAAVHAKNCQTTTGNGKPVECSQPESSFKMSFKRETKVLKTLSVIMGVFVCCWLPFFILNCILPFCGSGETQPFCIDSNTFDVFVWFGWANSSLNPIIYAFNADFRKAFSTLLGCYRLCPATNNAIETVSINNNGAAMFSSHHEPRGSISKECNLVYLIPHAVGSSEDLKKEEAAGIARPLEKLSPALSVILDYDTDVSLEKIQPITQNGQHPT
Procedure: as §2

Testosterone = Testosterone (Rattus norvegicus, UniProt P15207); assay: Receptor binding assay; conditions: sarsasapogenin 10 μM
Sequence of Testosterone (P15207 whole entry S389L): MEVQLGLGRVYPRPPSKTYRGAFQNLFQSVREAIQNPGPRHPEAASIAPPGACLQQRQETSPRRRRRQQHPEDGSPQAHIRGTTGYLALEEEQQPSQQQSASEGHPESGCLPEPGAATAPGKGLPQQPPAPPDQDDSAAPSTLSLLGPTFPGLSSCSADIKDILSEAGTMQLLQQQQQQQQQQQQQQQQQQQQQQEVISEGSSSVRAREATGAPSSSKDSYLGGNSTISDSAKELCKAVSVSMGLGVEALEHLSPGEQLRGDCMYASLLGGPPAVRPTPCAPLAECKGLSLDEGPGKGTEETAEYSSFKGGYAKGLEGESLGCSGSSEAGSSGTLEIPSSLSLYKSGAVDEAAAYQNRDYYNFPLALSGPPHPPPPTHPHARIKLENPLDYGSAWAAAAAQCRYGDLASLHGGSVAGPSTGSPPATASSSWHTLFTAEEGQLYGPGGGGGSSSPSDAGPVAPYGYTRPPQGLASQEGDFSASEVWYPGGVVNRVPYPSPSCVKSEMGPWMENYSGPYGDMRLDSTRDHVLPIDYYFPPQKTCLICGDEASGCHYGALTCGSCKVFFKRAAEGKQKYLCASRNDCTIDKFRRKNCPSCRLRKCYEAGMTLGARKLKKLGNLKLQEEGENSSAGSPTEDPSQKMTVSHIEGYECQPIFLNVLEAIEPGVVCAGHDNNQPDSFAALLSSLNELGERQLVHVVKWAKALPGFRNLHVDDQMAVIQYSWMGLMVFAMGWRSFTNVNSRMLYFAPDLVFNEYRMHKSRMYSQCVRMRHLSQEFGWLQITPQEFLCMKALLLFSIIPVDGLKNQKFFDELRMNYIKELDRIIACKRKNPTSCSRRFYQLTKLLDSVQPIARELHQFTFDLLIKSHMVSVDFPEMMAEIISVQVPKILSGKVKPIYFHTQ
Procedure: as §2

Muscarinic M2 = biological target: T7, Muscarinic M2 (Homo sapiens, UniProt P08172); assay: Receptor binding assay; conditions: sarsasapogenin 10 μM
T7 construct: host or cells: tissue or cell homogenate, not specified
T7 sequence (P08172 whole entry): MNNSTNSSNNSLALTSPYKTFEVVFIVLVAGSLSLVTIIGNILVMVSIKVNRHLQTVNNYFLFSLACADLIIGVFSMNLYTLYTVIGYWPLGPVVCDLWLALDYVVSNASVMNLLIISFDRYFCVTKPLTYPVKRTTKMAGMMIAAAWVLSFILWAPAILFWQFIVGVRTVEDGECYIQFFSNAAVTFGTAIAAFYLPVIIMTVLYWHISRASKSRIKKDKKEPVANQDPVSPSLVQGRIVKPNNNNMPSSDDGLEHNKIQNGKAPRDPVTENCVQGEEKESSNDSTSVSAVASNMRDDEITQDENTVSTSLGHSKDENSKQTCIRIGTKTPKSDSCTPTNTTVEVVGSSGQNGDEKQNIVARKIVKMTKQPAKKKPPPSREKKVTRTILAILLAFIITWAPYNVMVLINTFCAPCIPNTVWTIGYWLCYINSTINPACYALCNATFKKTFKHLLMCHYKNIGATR
Procedure: as §2

[3] = Long term oral toxicity study, non-rodents; assay type: in vivo; conditions: high doses
[4] = test system: rat primary cortical neurones; assay: ChAT positive neurones and neurite outgrowth after β-amyloid exposure; assay type: cell-based; conditions: 10 μM pre-incubation 48 h, then β-amyloid 10 μg/ml 48 h
Procedure: as §1

Rat cortical neurones = assay: Reversal of glutamate-induced damage in cortical neurones; assay type: cell-based; conditions: 30 nM for 24 h after glutamate 100 μM 10 min
Procedure: The rat cortical neurones were prepared as detailed above. On day 13, cultures were exposed to glutamate (100 μM) for 10 min at 37° C. in 5% CO2/95% air atmosphere in defined medium. Following the incubation period, the cultures were washed and maintained in fresh medium, containing sarsasapogenin, smilagenin or vehicle. Cells were cultured for a further 24 h after glutamate exposure and were then assessed for neuronal damage as detailed above.

[5] = test system: Rat spinal motor neurones; assay: Neuronal survival and neurite outgrowth in spinal motor neurones; assay type: cell-based; conditions: 3 days
Procedure: Rat spinal motor neurones were prepared according to a previously described method (Martinou et al, Neuron, 8, 737-744, 1992). Following 3 days of culturing with sarsasapogenin, smilagenin, vehicle (DMSO, 0.25%), Xaliproden, or BDNF, spinal cord motor neurones were washed twice in PBS, fixed in a cold solution of alcohol (95%) and acetic acid (5%) for 5 min and then rinsed 3 times in PBS. Neurones were stained using a monoclonal antibody anti β-tubulin and an anti mouse Immunoglobulin G. These antibodies stained neurone cell bodies (quantifying the neuroprotective effect) and neurites (quantifying the neurotrophic effect). The cell nuclei were stained by a fluorescent marker. After 1 h of incubation, cells were washed 3 times in PBS. […] A series of pictures were taken using a camera controlled by computer software. All the images were taken under the same conditions. Analyses of the number of cells labelled with anti β-tubulin antibodies and of the total number of cells (number of stained nuclei) were performed using LUCIA 6.0 software.

[6] = Tissue distribution after a single oral administration, dog; assay type: in vivo
trkB mRNA = trkB mRNA expression in rat cortical neurones under basal conditions (rt RT-PCR); assay type: cell-based; conditions: 30 nM
Procedure: (§3) Rat cortical neurones were cultured by modification of a method previously described (Singer, et al., Neuroscience Letters, 1996, 212, pp. 13-16). Twelve days after the start of culturing, sarsasapogenin (30 nM), smilagenin (30 nM), 4-methylcatechol (0.5 mM), an inducer of NGF and BDNF release (Saporito et al., Experimental Neurology., 1993, 123, pp. 295-302; Nitta et al., Journal of Pharmacology and Experimental Therapeutics, 1999, 291, pp. 1276-1283) or vehicle (dimethyl sulfoxide, DMSO, 0.25%) were added for 1, 3 or 6 h. After incubation the total messenger ribonucleic acid (mRNA) was quantified using real time reverse transcription-polymerase chain reaction (rt RT-PCR).

BDNF mRNA = BDNF mRNA expression in rat cortical neurones under basal conditions (rt RT-PCR); assay type: cell-based; conditions: 30 nM
Procedure: as §3

[7] = Dog F, 25 mg/kg single oral, 4 h
[8] = Dog F, 25 mg/kg single oral, 24 h
[9] = Dog F, 25 mg/kg single oral, 168 h
[10] = Dog M, 25 mg/kg single oral, 4 h
[11] = Dog M, 25 mg/kg single oral, 24 h
[12] = Dog M, 25 mg/kg single oral, 168 h
[13] = Dog M, 10 mg/kg single oral, 2 h
[14] = Dog M, 10 mg/kg single oral, 24 h
[15] = Dog M, 10 mg/kg single oral, 168 h

Compound: C[C@H]1CC[C@@]2(OC1)O[C@H]1C[C@H]3[C@@H]4CC[C@@H]5C[C@@H](O)CC[C@]5(C)[C@H]4CC[C@]3(C)[C@H]1[C@@H]2C [Sarsasapogenin, sarsasapogenin]
- BDNF concentration (pg/ml) (BDNF [1]): 9.31 ± 0.15^++++,**** pg/ml
- BDNF (ng/g tissue) (BDNF [2]): 1.41 ± 0.07 ng/g tissue
- Effect (%) (Glucocorticoid): NS (NS = No significant response. Significance was taken as ≧30% stimulation or inhibition)
- Effect (%) (Muscarinic M1): NS (NS = No significant response. Significance was taken as ≧30% stimulation or inhibition)
- Effect (%) (Muscarinic M4): NS (NS = No significant response. Significance was taken as ≧30% stimulation or inhibition)
- Effect (%) (Muscarinic M5): NS (NS = No significant response. Significance was taken as ≧30% stimulation or inhibition)
- Effect (%) (Muscarinic M3): NS (NS = No significant response. Significance was taken as ≧30% stimulation or inhibition)
- Effect (%) (Dopamine D1): NS (NS = No significant response. Significance was taken as ≧30% stimulation or inhibition)
- Effect (%) (Testosterone): NS (NS = No significant response. Significance was taken as ≧30% stimulation or inhibition)
- Effect (%) (Muscarinic M2): NS (NS = No significant response. Significance was taken as ≧30% stimulation or inhibition)
- Long term toxicity ([3]; 39 weeks in non-rodents): without showing any signs of toxicity or adverse events
- Number of ChAT positive neurones per field (% of control) [4]: 71.6 ± 3.7 % of control
- Neuronal survival (% of control) (Rat cortical neurones): 103.43 ± 5.10 % of control
- Neurite outgrowth (% of control) ([5]; 30 nM): 129.98 ± 5.47 % of control
- Neuronal survival (% of control) ([5]; 30 nM): 119.14 ± 3.33 % of control
- Neurite outgrowth (% of control) ([5]; 100 nM): 137.38 ± 7.93 % of control
- Neuronal survival (% of control) ([5]; 100 nM): 117.87 ± 3.63 % of control
- Concentration of compound, Brain [6, 7]: 0.128 ng equivalents/g tissue
- Concentration of compound, Plasma [6, 7]: 0.184 ng equivalents/g tissue
- Concentration of compound, Spinal cord [6, 7]: 0.515 ng equivalents/g tissue
- Concentration of compound, Brain [6, 8]: 8.64 ng equivalents/g tissue
- Concentration of compound, Plasma [6, 8]: 1.79 ng equivalents/g tissue
- Concentration of compound, Spinal cord [6, 8]: 5.79 ng equivalents/g tissue
- Concentration of compound, Brain [6, 9]: 0.535 ng equivalents/g tissue
- Concentration of compound, Plasma [6, 9]: 0.115 ng equivalents/g tissue
- Concentration of compound, Spinal cord [6, 9]: 1.43 ng equivalents/g tissue
- Concentration of compound, Brain [6, 10]: 1.37 ng equivalents/g tissue
- Concentration of compound, Plasma [6, 10]: 0.641 ng equivalents/g tissue
- Concentration of compound, Spinal cord [6, 10]: 1.13 ng equivalents/g tissue
- Concentration of compound, Brain [6, 11]: 2.33 ng equivalents/g tissue
- Concentration of compound, Plasma [6, 11]: 0.196 ng equivalents/g tissue
- Concentration of compound, Spinal cord [6, 11]: 1.82 ng equivalents/g tissue
- Concentration of compound, Brain [6, 12]: 0.605 ng equivalents/g tissue
- Concentration of compound, Plasma [6, 12]: 0.309 ng equivalents/g tissue
- Concentration of compound, Spinal cord [6, 12]: 1.49 ng equivalents/g tissue
- trkB mRNA, % increase above control (trkB mRNA; 1 h): No increase
- trkB mRNA, % increase above control (trkB mRNA; 3 h): 33%
- trkB mRNA, % increase above control (trkB mRNA; 6 h): No increase
- BDNF mRNA, % increase above control (BDNF mRNA; 1 h): No increase
- BDNF mRNA, % increase above control (BDNF mRNA; 3 h): 22%
- BDNF mRNA, % increase above control (BDNF mRNA; 6 h): No increase

Compound: C[C@@H]1CC[C@@]2(OC1)O[C@H]1C[C@H]3[C@@H]4CC[C@@H]5C[C@@H](O)CC[C@]5(C)[C@H]4CC[C@]3(C)[C@H]1[C@@H]2C [Smilagenin, smilagenin]
- BDNF concentration (pg/ml) (BDNF [1]): 4.20 ± 0.06****^,++++ pg/ml
- BDNF (ng/g tissue) (BDNF [2]): 1.34 ± 0.07 ng/g tissue
- Long term toxicity ([3]; up to 52 weeks in non-rodents): without showing any signs of toxicity or adverse events
- Neurite outgrowth (% of control) [4]: 85.8 ± 4.0 % of control
- Number of ChAT positive neurones per field (% of control) [4]: 70.1 ± 9.6 % of control
- Neuronal survival (% of control) (Rat cortical neurones): 111.06 ± 3.40 % of control
- Neurite outgrowth (% of control) ([5]; 30 nM): 163.66 ± 9.28 % of control
- Neuronal survival (% of control) ([5]; 30 nM): 120.11 ± 2.92 % of control
- Neurite outgrowth (% of control) ([5]; 100 nM): 164.75 ± 5.57 % of control
- Neuronal survival (% of control) ([5]; 100 nM): 121.21 ± 2.75 % of control
- Concentration of compound, Brain [6, 13]: 3670 ng equivalents/g tissue
- Concentration of compound, Plasma [6, 13]: 3878 ng equivalents/g tissue
- Concentration of compound, Spinal cord [6, 13]: 1805 ng equivalents/g tissue
- Concentration of compound, Brain [6, 14]: 5813 ng equivalents/g tissue
- Concentration of compound, Plasma [6, 14]: 1508 ng equivalents/g tissue
- Concentration of compound, Spinal cord [6, 14]: 3647 ng equivalents/g tissue
- Concentration of compound, Brain [6, 15]: 1727 ng equivalents/g tissue
- Concentration of compound, Plasma [6, 15]: 1129 ng equivalents/g tissue
- Concentration of compound, Spinal cord [6, 15]: 3165 ng equivalents/g tissue
- trkB mRNA, % increase above control (trkB mRNA; 1 h): 21%
- trkB mRNA, % increase above control (trkB mRNA; 3 h): 55%
- trkB mRNA, % increase above control (trkB mRNA; 6 h): No increase
- BDNF mRNA, % increase above control (BDNF mRNA; 1 h): No increase
- BDNF mRNA, % increase above control (BDNF mRNA; 3 h): 40%
- BDNF mRNA, % increase above control (BDNF mRNA; 6 h): No increase
